These results are taken from patent US9821002B2, “Method for alleviating radiation injury with isorhamnetin-3-O-β-D-glucoside” (Sinotai Oncology Associate., Ltd., priority 2015, dated 2017).

The test system of one test is BNL CL.2 cells. As to the kind of experiment: Clonogenic assay after X-ray irradiation. It counts as cell-based, mouse. The conditions noted are these: 30 μM, 2 h pretreatment, X-ray 2, 4, 6 Gy, colonies after two weeks. From the text:
Eight groups of BNL CL.2 cells (i.e., a normal control group referred to as Normal Control Group 1-A, an isorhamnetin-3-O-β-D-glucoside group referred to as Isorhamnetin-3-O-β-D-glucoside Group 1-A, three X-ray control groups referred to as X-Ray Control Groups 1-A to 3-A, and three experimental groups referred to as Experimental Groups 1-A to 3-A) and eight groups of NMuMG cells (i.e., a normal control group referred to as Normal Control Group 1-B, an isorhamnetin-3-O-β-D-glucoside group referred to as Isorhamnetin-3-O-β-D-glucoside Group 1-B, three X-ray control groups referred to as X-Ray Control Groups 1-B to 3-B, and three experimental groups referred to as Experimental Groups 1-B to 3-B) were prepared based on the procedure set forth in “Source and cultivation of cell lines” of “Experimental materials”. Specifically, BNL CL.2 cells in each group were cultivated using 5 mL of a corresponding medium shown in Table 1 and a 6-cm Petri dish in an amount of 2×10^5 cells per dish. Likewise, NMuMG cells in each group were cultivated using 5 mL of a corresponding medium shown in Table 1 and a 6-cm Petri dish in an amount of 2.5×10^5 cells per dish. The cultivation was conducted in an incubator (37° C., 5% CO2) for 24 hours. […]

A further test has as its system NMuMG cells. The test is described as follows: Cell cycle analysis (PI flow cytometry) after X-ray irradiation. The class given is cell-based, mouse. The conditions noted are these: 2 h pretreatment, X-ray 20 Gy, 96 hours, mean ± SEM. As for the experimental part: Four groups of NMuMG cells (i.e., a normal control group, an X-ray control group, and two experimental groups referred to as Experimental Groups 1 to 2) were prepared based on the procedure set forth in “Source and cultivation of cell lines” of “Experimental materials”. NMuMG cells in each group were cultivated using 5 mL of a corresponding medium shown in Table 1 and a 6-cm Petri dish in an amount of 2.5×10^5 cells per dish. The cultivation was conducted in an incubator (37° C., 5% CO2) for 24 hours.
Subsequently, medium was replaced with fresh medium, and a suitable amount of isorhamnetin-3-O-β-D-glucoside stock solution was added to the obtained culture in each of Experimental Groups 1 and 2, such that the final concentration of isorhamnetin-3-O-β-D-glucoside in the culture in Experimental Group 1 was 15 μM, and the final concentration of isorhamnetin-3-O-β-D-glucoside in the culture in Experimental Group 2 was 30 μM. Isorhamnetin-3-O-β-D-glucoside stock solution was not added to the cultures in the normal control group and the X-ray control group.
The culture in each group was then cultivated in an incubator (37° C., 5% CO2) for two hours. The resultant culture was used for the following cell cycle analysis.
The cultures in the X-ray control group and Experimental Groups 1 to 2, prepared according to section A of “Experimental procedures” in this example, were subjected to X-ray irradiation using a linear accelerator at a dose of 20 Gy. The culture in the normal control group received no X-ray irradiation treatment. The culture in each group was cultivated in an incubator (37° C., 5% CO2) for 96 hours, followed by centrifugation at 25° C. and 1200 rpm for 3 minutes. The supernatant was removed, and the precipitate thus obtained was washed with cold PBS (pH 7.4), followed by fixing the cells with 1 mL of cold methanol. The fixed cells thus obtained were left standing at −20° C. overnight. Following this, the fixed cells were washed with cold PBS (pH 7.4), and 250 μL of cold DNA dying solution which was prepared in ddH2O, containing 200 μg/mL RNase A solution (Sigma-Aldrich), 50 μg/mL propidium iodide (PI)(Sigma-Aldrich), and 0.1% (v/v) Triton X-100, was added to re-suspend the cells in each group. The cells were kept in the dark for 30 minutes at 37° C. to obtain stained cells.
Subsequently, the stained cells thus obtained were subjected to cell cycle analysis using BD Accuri™ C6 flow cytometer (BD Biosciences), and 1.0×10^6 cells were analyzed in each analysis. The cells emitted fluorescence when excited by a laser beam of argon ion at 488 nm, and the fluorescence intensity was detected at a wavelength of 585 nm. The percentage of the cells in each cell cycle phase was analyzed using BD Accuri™ C6 software (BD Biosciences).
For orientation: Flow cytometry measures light scatter and fluorescence of single cells or particles in a stream.

Take `COc1cc(-c2oc3cc(O)cc(O)c3c(=O)c2O[C@@H]2O[C@H](CO)[C@@H](O)[C@H](O)[C@H]2O)ccc1O` [isorhamnetin-3-O-β-D-glucoside]: in the test on BNL CL.2 cells, the “survival fraction (clonogenic assay) versus X-ray control group” value is “higher than that of the X-ray control group”. In the test on NMuMG cells (15 μM), the “The percentage of the cells in each cell cycle phase: G0/G1” value was 21 ± 4.31 %, the “The percentage of the cells in each cell cycle phase: G2/M” value was 58.76 ± 8.97%, the “The percentage of the cells in each cell cycle phase: S” value is reported as 6.4 ± 0.28% and the “The percentage of the cells in each cell cycle phase: Sub-G1” value amounted to 16.11 ± 2.03 %. Further, in the test on NMuMG cells (30 μM), the “The percentage of the cells in each cell cycle phase: G0/G1” value is 22.25 ± 4.87 %, the “The percentage of the cells in each cell cycle phase: G2/M” value was found to be 59.63 ± 10.78%, the “The percentage of the cells in each cell cycle phase: S” value is on record as 5.88 ± 1.2% and the “The percentage of the cells in each cell cycle phase: Sub-G1” value was 13.88 ± 1.46 %.
